What all share (format): physicochemical
Data set [1] can be described thus: Dissolution of carbamazepine dry coated with micronized sodium lauryl sulphate (FIG. 10).
The nature of data set [2]: USP II basket dissolution of piroxicam/PVP powders in 0.1N hydrochloric acid. Particulars: 20 mg dose, 37° C., 50 rpm, end of the 4 h interval, FIG. 8. The protocol:
(§1) The dissolution rate was analysed using standard USP II dissolution apparatus using the basket assembly dissolution vessels. Standard 20 mg dose powders were investigated to mimic a patient dose, with dissolution conditions maintained at 37° C. and the basket apparatus rotated at 50 rpm in 0.1N hydrochloric acid. Powders were placed in the basket and submerged in to the dissolution apparatus and ran over 4 h. Samples were taken at predetermined time intervals, with each sample volume replaced with the same amount of fresh dissolution media to maintain sink conditions. The samples were filtered appropriately and analysed for drug content using HPLC apparatus at each of the time points. All results were taken in triplicate, and are represented in FIG. 8.

Data set [3] can be described thus: USP II basket dissolution of phenytoin/PVP powders in distilled water. Particulars: 200 mg dose, 37° C., 50 rpm, 4 h, FIG. 9. The protocol:
as §1, with “200” for “20”, “distilled water.” for “0.1N hydrochloric acid.”, “9.” for “8.”

Data set [4] can be described thus: USP II basket dissolution of carbamazepine/PVP powders in distilled water. Particulars: 200 mg dose, 37° C., 50 rpm, over the 4 h time period, FIG. 7. The protocol:
as §1, with “200” for “20”, “distilled water.” for “0.1N hydrochloric acid.”, “7.” for “8.”

A short description of data set [5]: USP II basket dissolution of flucloxacillin sodium/polymer powders in pH 6.8 phosphate buffer. Particulars: 250 mg dose, 37° C., 50 rpm, 60 mins, FIG. 13. The protocol: as §1, with “250” for “20”, “pH 6.8 phosphate buffer.” for “0.1N hydrochloric acid.”, “60 mins.” for “4 h.”, “and are represented in FIG. 8.” left out

With `NC(=O)N1c2ccccc2C=Cc2ccccc21` [off the shelf carbamazepine (CBZ), carbamazepine], the drug release result in data set [1] is “around 38%”.
In turn, `CN1C(C(=O)Nc2ccccn2)=C(O)c2ccccc2S1(=O)=O` [control piroxicam, piroxicam] displayed a drug release in data set [2] of 29.7%.
In the case of `O=C1NC(=O)C(c2ccccc2)(c2ccccc2)N1` [phenytoin alone, phenytoin], the release in data set [3] is given as 4.7%.
On to `NC(=O)N1c2ccccc2C=Cc2ccccc21` [micronized carbamazepine, carbamazepine], for which the drug release result in data set [4] is “very poor release”.
For `Cc1onc(-c2c(F)cccc2Cl)c1C(=O)N[C@@H]1C(=O)N2[C@@H]1SC(C)(C)[C@@H]2C(=O)O` [flucloxacillin sodium], the “release of flucloxacillin sodium” value in data set [5] is recorded as “full release within a minute”.

The values are drawn from patent US11766649B2, “Coating method” (ASTON PARTICLE TECHNOLOGIES LIMITED, priority 2017, dated 2023).
